{
  "source": "patent US20240252516A1",
  "about": "“COMBINATION BPH THERAPY WITH FEXAPOTIDE TRIFLUTATE, A 5-ARI, AND AN ALPHA BLOCKER” (Nymox Corporation, priority 2023, published 2024)",
  "key": {"patients with BPH": {"system": "patients with BPH", "experiment": "Clinical trial in men with BPH: International Prostate Symptom Score (IPSS) change from baseline", "type": "in vivo, human", "details": "oral medication together with placebo PBS injection, >2 years after treatment", "method": "Clinical trials were conducted on numerous individuals having BPH. All protocols were done in accordance with applicable regulations, and carried out by physicians.\nIn a study of 978 men, patients with BPH were first administered a course of antibiotics for a period of 2-4 weeks, and then given an intraprostatic injection of either a) 10 ml of FT in phosphate buffered saline (concentration of 0.25 mg/ml), pH 7.2 (“PBS”) or b) PBS alone, under double-blind conditions by a urologist in an office setting under ultrasound guidance. Each patient was followed for a number of years with regular physical examinations, laboratory tests, and evaluations of symptoms. Symptomatic evaluation was measured by the International Prostate Symptom Score (IPSS) which is a quantitative scale used to gauge prostatic symptomatic improvement or worsening. The IPSS quantifies the following: 1) incomplete bladder emptying after urination; 2) frequent urination; 3) stopping and starting during urination; 4) urgent need to urinate; 5) weakness of urinary stream; 6) need to push or strain during urination; 7) need to urinate after going to sleep at night (nocturia). […]\nUsing the results from the above tables, the average mean IPSS improvement of the respective medications, or combinations of medications can be determined, as well as the percent improvement in mean IPSS when compared to the average of the actives. […]"}, "[1]": {"system": "benign prostatic hyperplasia", "details": "McConnell et al.; cited from earlier work"}, "BPH patients": {"system": "BPH patients", "details": "CombAT trial, after 2 years; cited from earlier work"}, "5α-reductase": {"system": "5α-reductase", "details": "blood; cited from earlier work"}, "[2]": {"system": "α1- than α2-adrenergic receptors", "details": "α1 versus α2 selectivity; cited from earlier work"}, "[3]": {"system": "prostate glandular epithelial cells", "experiment": "Tissue culture genetic array, in vitro pathway activation", "type": "cell-based", "text": "FT is a new molecular entity which in vitro stimulates caspase pathways (activation of caspases 7, 8, and 10, caspase recruitment domains 6, 11, and 14, and DIABLO), tumor necrosis factor pathways (activation of TNF1, TNFSF6, TNFSF8, TNFSF9, CD70 ligands, and TNFRSF19L, TNFRSF25, TRAF2, TRAF3, TRAF4, TRAF6 receptors), and BCL pathways (activation of BIK, HRK, BCL2L10 and BCL3) in prostate glandular epithelial cells, based on tissue culture genetic array data. FT selectively causes loss of cell membrane integrity, mitochondrial metabolic arrest, depletion of RNA, DNA lysis and aggregation, and cell fragmentation and cell loss. The apoptotic process leads to typical ultrastructural progressive changes of membranous disruption and swelling, progressively deepening nuclear invaginations with eventual membranous bleb formations and cell death and fragmentation into apoptotic bodies. Histologically, typical apoptotic changes with positive immunohistochemical staining of markers for apoptosis are found throughout the injected areas for up to several weeks after treatment."}},
  "note": "Ends that are not written are not given here.",
  "data": [
    {"compound": "CN1CC(=O)N2[C@H](c3ccc4c(c3)OCO4)c3[nH]c4ccccc4c3C[C@@H]2C1=O", "note": "[PDE5 Inhibitor, tadalafil]", "values": [
      {"measurement": "Mean IPSS Improvement, oral meds alone", "setting": "patients with BPH", "value": 4.67}
    ]},
    {"compound": "COc1cc2nc(N3CCN(C(=O)C4COc5ccccc5O4)CC3)nc(N)c2cc1OC", "note": "(centres unmarked) [doxazosin, 1-(4-amino-6,7-dimethoxy-2-quinazolinyl)-4-[(2,3-dihydro-1,4-benzodioxin-2-yl)carbonyl]piperazine]", "values": [
      {"measurement": "long term (4 year) mean IPSS improvement", "setting": "[1]", "value": 6.6}
    ]},
    {"compound": "C[C@]12C=CC(=O)N[C@@H]1CC[C@@H]1[C@@H]2CC[C@]2(C)[C@@H](C(=O)Nc3cc(C(F)(F)F)ccc3C(F)(F)F)CC[C@@H]12", "note": "[dutasteride, 17β-N-(2,5-bis(Trifluoromethyl))phenylcarbamoyl-4-aza-5α-androst-1-en-3-one]", "values": [
      {"measurement": "mean decrease in IPSS from baseline", "setting": "BPH patients", "value": 4.9},
      {"measurement": "reduction in circulating DHT levels", "setting": "5α-reductase", "value": "up to 98%"}
    ]},
    {"compound": "CC(C)(C)NC(=O)[C@H]1CC[C@H]2[C@@H]3CC[C@H]4NC(=O)C=C[C@]4(C)[C@H]3CC[C@]12C", "note": "[finasteride]", "values": [
      {"measurement": "long term (4 year) mean IPSS improvement", "setting": "[1]", "value": 5.6},
      {"measurement": "reduction in circulating DHT levels", "setting": "5α-reductase", "value": "65 to 70", "unit": "%"}
    ]},
    {"compound": "Cc1ccc(N(CC2=NCCN2)c2cccc(O)c2)cc1", "note": "[phentolamine]", "values": [
      {"measurement": "potency in inhibiting α1- than α2-adrenergic receptors", "setting": "[2]", "value": "three to five times more potent"}
    ]},
    {"compound": "CCOc1ccccc1OCCN[C@H](C)Cc1ccc(OC)c(S(N)(=O)=O)c1", "note": "[tamsulosin, (R)-5-(2-{[2-(2-Ethoxyphenoxy)ethyl]amino}propyl)-2-methoxybenzene-1-sulfonamide]", "values": [
      {"measurement": "mean decrease in IPSS from baseline", "setting": "BPH patients", "value": 4.3}
    ]},
    {"compound": "Ile-Asp-Gln-Gln-Val-Leu-Ser-Arg-lle-Lys-Leu-Glu-lle-Lys-Arg-Cys-Leu (IDQQVLSRIKLEIKRCL; also: trifluoroacetate salt) [FT, 1: …]", "values": [
      {"measurement": "BCL pathways (BIK, HRK, BCL2L10, BCL3)", "setting": "[3]", "value": "stimulates"},
      {"measurement": "caspase pathways (caspases 7, 8, 10, caspase recruitment domains 6, 11, 14, DIABLO)", "setting": "[3]", "value": "stimulates"},
      {"measurement": "tumor necrosis factor pathways (TNF1, TNFSF6, TNFSF8, TNFSF9, CD70 ligands, TNFRSF19L, TNFRSF25, TRAF2, TRAF3, TRAF4, TRAF6 receptors)", "setting": "[3]", "value": "stimulates"}
    ]}
  ]
}
